# Data: ChEMBL document CHEMBL1201862, “PubChem BioAssay data set” (2004)
# Values joined by “and” are separate entries in the source; they are usually repeats but may differ in a detail not shown here. Identical values can stand only once. Active and inactive are the calls of the source.
# Tests used:
# [1] = tested on: Streptococcus sp. 'group A'; assay: Streptococcus pyogenes SK(-)GAS viability under kanamycin – luminescence, BacTiterGlo, confirmation, counter-screen for streptokinase expression inhibitor project, dose response (AID 1900); format: functional, organism-based
# [2] = biological target: T1, Streptokinase A (Streptococcus pyogenes serotype M1, UniProt P10520); assay: viability-normalized secreted streptokinase activity reduction – plasminogen activation absorbance, OD405, dose response (AID 1914); format: functional, Streptococcus pyogenes M1 GAS;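 further: secreted streptokinase activity via plasminogen activation per viability signal from cell pellet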
# T1 sequence (P10520 whole entry): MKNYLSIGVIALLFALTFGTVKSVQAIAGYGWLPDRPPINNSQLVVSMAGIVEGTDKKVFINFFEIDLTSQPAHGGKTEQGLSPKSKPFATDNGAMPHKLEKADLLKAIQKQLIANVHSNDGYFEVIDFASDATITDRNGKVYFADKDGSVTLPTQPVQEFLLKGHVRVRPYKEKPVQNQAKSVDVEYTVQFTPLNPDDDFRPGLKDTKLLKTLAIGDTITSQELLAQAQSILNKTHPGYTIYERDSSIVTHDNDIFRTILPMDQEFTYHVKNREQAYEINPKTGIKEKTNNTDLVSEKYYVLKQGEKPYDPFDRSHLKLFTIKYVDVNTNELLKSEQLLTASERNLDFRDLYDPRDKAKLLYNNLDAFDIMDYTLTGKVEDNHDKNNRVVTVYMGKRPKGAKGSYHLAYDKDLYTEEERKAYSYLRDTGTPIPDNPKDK
# [3] = tested on: Streptococcus; assay: GAS UMAA2166 growth inhibition – luminescence, BacTiterGlo, counter-screen for streptokinase expression inhibitor project, dose response (AID 1915); format: functional, organism-based;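 further: potency for reduction of bacterial viability or growth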
# [4] = biological target: T2, Heat shock factor protein 1 (Mus musculus, UniProt P38532); assay: decrease of HSF1-responsive luciferase luminescence – cell-based, NIH3T3, dose retest, confirmation (AID 2382); format: functional;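 further: NIH3T3 fibroblasts with HSF1-driven luciferase reporter stressed by proteasome inhibitor MG132; luminescence from HSF1-driven luciferase expression after 8 hours of MG132 stress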
# T2 sequence (P38532 whole entry): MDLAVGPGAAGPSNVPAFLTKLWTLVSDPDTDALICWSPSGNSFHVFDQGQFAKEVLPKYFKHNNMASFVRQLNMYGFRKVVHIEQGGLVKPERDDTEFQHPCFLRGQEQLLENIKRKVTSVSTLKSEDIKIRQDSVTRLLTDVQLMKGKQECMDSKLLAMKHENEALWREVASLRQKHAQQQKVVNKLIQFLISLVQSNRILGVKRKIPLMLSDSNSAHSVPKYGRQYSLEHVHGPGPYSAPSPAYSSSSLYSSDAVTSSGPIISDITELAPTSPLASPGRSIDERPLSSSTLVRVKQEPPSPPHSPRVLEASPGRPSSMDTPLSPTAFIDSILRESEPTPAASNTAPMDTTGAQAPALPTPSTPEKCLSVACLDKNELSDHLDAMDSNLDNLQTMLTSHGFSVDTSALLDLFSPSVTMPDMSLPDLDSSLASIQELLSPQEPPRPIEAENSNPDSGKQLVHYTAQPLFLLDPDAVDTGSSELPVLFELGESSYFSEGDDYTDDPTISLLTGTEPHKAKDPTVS
# [5] = biological target: Cytochrome P450 2C9 (Homo sapiens, UniProt P11712)
# Chain of Cytochrome P450 2C9 (P11712 whole entry): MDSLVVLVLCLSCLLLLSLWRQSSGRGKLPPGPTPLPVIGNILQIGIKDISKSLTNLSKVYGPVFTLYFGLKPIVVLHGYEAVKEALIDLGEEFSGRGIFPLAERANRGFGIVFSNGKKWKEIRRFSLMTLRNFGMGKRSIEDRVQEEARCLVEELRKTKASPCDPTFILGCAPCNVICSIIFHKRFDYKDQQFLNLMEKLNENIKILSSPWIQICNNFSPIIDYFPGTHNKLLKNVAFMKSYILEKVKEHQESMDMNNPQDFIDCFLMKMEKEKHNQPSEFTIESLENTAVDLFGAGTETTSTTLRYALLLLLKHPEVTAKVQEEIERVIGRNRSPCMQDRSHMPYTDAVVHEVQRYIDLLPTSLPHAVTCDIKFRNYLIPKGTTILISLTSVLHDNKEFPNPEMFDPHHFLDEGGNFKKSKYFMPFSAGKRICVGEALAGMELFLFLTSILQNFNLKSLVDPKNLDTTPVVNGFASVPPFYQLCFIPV
# [6] = Trypanosoma cruzi growth suppression in host cells – NIH3T3 host cells, beta-gal luminescence, confirmation (AID 2044); format: functional, cell-based;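 further: intracellular parasites grown in NIH/3T3 mouse fibroblasts as host cells; luminescent beta-galactosidase reporter signal from transgenic T. cruzi replicating inside host cells; inhibitors lower the luminescence signal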
# [7] = NIH3T3 cell viability loss – ATP luminescence, mouse fibroblasts, counter-screen, dose response (AID 2010); format: functional, cell-based;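 further: cells exposed to compound for about 90 hours before reading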
# [8] = biological target: Cytochrome P450 3A4 (Homo sapiens, UniProt P08684);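 further: CYP3A4 tested as one member of a cytochrome P450 panel screen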
# Chain of Cytochrome P450 3A4 (P08684 whole entry): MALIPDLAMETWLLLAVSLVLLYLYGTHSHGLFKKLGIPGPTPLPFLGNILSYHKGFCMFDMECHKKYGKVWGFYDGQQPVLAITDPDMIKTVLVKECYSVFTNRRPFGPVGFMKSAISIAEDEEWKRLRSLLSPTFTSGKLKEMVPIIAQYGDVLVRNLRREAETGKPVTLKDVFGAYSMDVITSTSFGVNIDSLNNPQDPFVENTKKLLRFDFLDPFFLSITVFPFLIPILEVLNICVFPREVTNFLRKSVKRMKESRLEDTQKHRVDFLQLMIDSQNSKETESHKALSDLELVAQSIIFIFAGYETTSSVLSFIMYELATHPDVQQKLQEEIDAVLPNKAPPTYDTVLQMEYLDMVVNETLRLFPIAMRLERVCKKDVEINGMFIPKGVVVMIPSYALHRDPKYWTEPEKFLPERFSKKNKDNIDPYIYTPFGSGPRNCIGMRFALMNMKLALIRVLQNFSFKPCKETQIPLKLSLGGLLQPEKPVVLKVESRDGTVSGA
# [9] = biological target: Cytochrome P450 2C19 (Homo sapiens, UniProt P33261); assay: Cytochrome panel assay with activity outcomes. Panel member name: p450-cyp2c19 Compounds with AC50 equal or less than 10 uM are considered active; format: functional
# Chain of Cytochrome P450 2C19 (P33261 whole entry): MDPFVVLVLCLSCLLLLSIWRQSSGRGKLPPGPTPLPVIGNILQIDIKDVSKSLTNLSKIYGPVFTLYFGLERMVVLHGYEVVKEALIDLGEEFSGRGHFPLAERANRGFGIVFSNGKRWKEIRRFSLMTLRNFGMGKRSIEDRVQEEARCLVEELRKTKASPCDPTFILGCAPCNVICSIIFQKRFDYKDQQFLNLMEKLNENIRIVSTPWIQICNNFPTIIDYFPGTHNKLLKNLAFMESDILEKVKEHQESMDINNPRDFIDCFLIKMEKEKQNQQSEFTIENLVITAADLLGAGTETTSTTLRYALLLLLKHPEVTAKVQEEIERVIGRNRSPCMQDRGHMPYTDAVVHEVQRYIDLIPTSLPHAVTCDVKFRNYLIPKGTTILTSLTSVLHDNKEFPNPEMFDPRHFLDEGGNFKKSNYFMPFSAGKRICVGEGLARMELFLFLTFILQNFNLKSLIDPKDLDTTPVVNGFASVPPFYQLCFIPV
smiles,measurement,setting,value
COc1ccc(Cl)cc1C(=O)NNC(=S)NC(=O)c1cc(-c2ccccc2)nc2ccccc12,EC50,[1],1.31 µM (active)
same,EC50,[2],> 150 µM (not active)
same,EC50,[3],> 150 µM (inconclusive)
CCOC(=O)c1ccc(NC(=O)c2[nH]cnc2C(=O)N[C@@H](Cc2ccccc2)C(=O)OC(C)(C)C)cc1,EC50,[1],5.26 µM (active)
same,EC50,[2],> 150 µM (not active)
same,EC50,[3],44.9 µM (active)
CSc1nc(Cc2ccccc2)cc(=O)[nH]1,EC50,[4],> 195 µM (not active)
CC(C)N1CCN(Cc2ccc3nsnc3c2)CC1CCO (stereo unspecified),EC50,[4],> 195 µM (not active)
CCOC(=O)c1c(-c2ccccc2)nc2ccc(Cl)cn12,AC50,[5],15.8 µM (inconclusive)
Cc1c(C#N)c(/N=C/N(C)C)c(C(=O)c2ccc(Br)cc2)n1-c1ccc(Cl)cc1,EC50,[6],2.8 µM (active)
same,EC50,[7],> 60 µM (inconclusive)
CC(=O)c1c(-c2ccc(Cl)cc2Cl)noc1C,EC50,[4],> 195 µM (not active)
COc1ccccc1NC(=O)c1ccc(N2CC3CC(C2)c2cccc(=O)n2C3)c(NC(=O)c2ccncc2)c1 (stereo unspecified),EC50,[4],> 195 µM (not active)
COc1ccc(-c2[nH]ncc2N=Nc2cc(C)cc(C)c2)cc1,EC50,[1],23.1 µM (active)
same,EC50,[2],> 150 µM (not active)
same,EC50,[3],> 150 µM (not active)
CCO/C(O)=C1\C(C)=Nc2sc(C(=O)c3ccc(Br)cc3)c(N)c2C1c1ccc(C(=O)OC)cc1 (stereo unspecified),EC50,[6],1.09 µM (active)
same,EC50,[7],15.8 µM (active)
COc1ncc2nc(-c3cc(F)cc(F)c3)c(=O)n(CCC#N)c2n1,AC50,[8],20 µM (inconclusive)
CS(=O)(=O)c1cccc(NC(=O)c2ccc(Cl)c(Cl)c2)c1,EC50,[6],3.1 µM (active)
same,EC50,[7],> 30 µM (not active)
O=C(O)c1cc(-c2ccc(-c3ccc(-c4cc(C(=O)O)c5cc(Cl)ccc5n4)cc3)cc2)nc2ccc(Cl)cc12,AC50,[5],3.16 µM (inconclusive)
COC(=O)[C@H]1C[C@@H]1[C@H](NC(=O)c1ccccc1)c1ccccc1,AC50,[5],39.8 µM (inconclusive)
O=C(Nc1ccccc1Cc1ccccc1)c1ccncc1,EC50,[6],0.802 µM (active)
same,EC50,[7],> 60 µM (not active)
CCC1CC(CSc2nc[nH]n2)OC1=O (stereo unspecified),AC50,[5],25.1 µM (inconclusive)
Cc1cc(C)cc(NS(=O)(=O)c2ccc(NC(=S)NC(=O)c3cccs3)cc2)c1,EC50,[1],4.5 µM (active)
same,EC50,[2],11.7 µM (active)
same,EC50,[3],50.1 µM (active)
CC(=O)c1cc(C#N)c(Oc2cccc(C(F)(F)F)c2)nc1C,AC50,[5],25.1 µM (inconclusive)
C[C@H](CCC(=O)NN)[C@@H]1CC[C@@H]2[C@H]3CC[C@H]4C[C@@H](O)CC[C@@]4(C)[C@@H]3CC[C@]21C,AC50,[9]; read-out: AC50,3.16 µM (inconclusive)
CC(OC(=O)CN1C(=O)NC2(CCCC2)C1=O)C(=O)c1ccccc1 (stereo unspecified),EC50,[4],> 195 µM (not active)
CCn1c(SCC(=O)Nc2sc3c(c2C#N)CCCC3)nnc1-c1ccco1,EC50,[6],1.89 µM (active)
same,EC50,[7],> 60 µM (inconclusive)
CN1CCN(c2ccc(S(=O)(=O)N3CCCCC3)cc2[N+](=O)[O-])CC1,EC50,[6],0.81 µM (active)
same,EC50,[7],> 60 µM (not active)
CCCNC(=O)OC[C@@H]1O[C@H](CCO/N=C(\C)CCN2CCc3nc(-c4ccccc4)c(-c4ccccc4)cc3C2)C=C[C@@H]1Oc1ccc(OC)cc1,AC50,[9]; read-out: AC50,0.316 µM (inconclusive)
Cc1ccc(SCCCn2cncn2)cc1,EC50,[4],> 195 µM (not active)
Cc1cc(OCC(=O)OC(C)C)c2c3c(c(=O)oc2c1)CCCC3,AC50,[8],28.2 µM (inconclusive)
COc1cccc(Nc2ncc3nc(-c4ccc(Cl)cc4)c(=O)n(C[C@H]4CCCO4)c3n2)c1,AC50,[8],15.8 µM (inconclusive)
CCOC(=O)c1c(-c2ccc(OC)cc2)csc1NC=C1C(=O)CCCC1=O,EC50,[1],66 µM (active)
same,EC50,[2],> 150 µM (not active)
same,EC50,[3],32.7 µM (active)
Oc1ccccc1/N=C/c1c(O)ccc2oc3c(c12)CCCC3,EC50,[1],7.61 µM (active)
same,EC50,[2],> 150 µM (not active)
same,EC50,[3],10.6 µM (active)
Nc1ccccc1SCC(=O)Nc1ccc2c(c1)OCCO2,EC50,[4],> 195 µM (not active)
Cc1nn(Cc2ccccc2)c(C)c1NC(=O)c1noc2c1CCc1ccccc1-2,EC50,[4],> 195 µM (not active)
O=C(c1ccc2c(c1)OCO2)C1CCCN(Cc2cccn2-c2cccnc2)C1 (stereo unspecified),EC50,[6],3.29 µM (active)
same,EC50,[7],> 60 µM (not active)
CCCC[C@@H]1CNC(=O)C(=O)N1CCc1cccc2ccccc12,EC50,[4],> 195 µM (not active)
O=C(NCC1CCCO1)C(c1cccnc1)N(C(=O)Cc1cccs1)c1cccnc1 (stereo unspecified),AC50,[9]; read-out: AC50,31.6 µM (inconclusive)
Cc1ccc(S(=O)(=O)n2c3ccccc3c3nnc(C(=O)c4ccccc4)nc32)cc1,AC50,[9]; read-out: AC50,0.0126 µM (inconclusive)
same,AC50,[5],3.16 µM (inconclusive)
COc1cccc(-c2cncnc2NC2CCNCC2)c1,AC50,[9],inconclusive
COc1ccc(Cl)cc1C(=O)NNC(=S)NC(=O)c1ccc(F)c(F)c1,EC50,[1],0.217 µM (active)
same,EC50,[3],1.37 µM (active)
Oc1ccccc1C1CCCCC1c1ccccc1 (stereo unspecified),EC50,[1],3.83 µM (active)
same,EC50,[2],12.7 µM (active)
same,EC50,[3],50.4 µM (active)
O=C(c1c(O)nc2cc(Cl)ccc2c1O)C1CC1,AC50,[8],0.00316 µM (inconclusive)
Cn1cccc1C(=O)N1CCC2(CCN(Cc3ccc(C#N)cc3)CC2)CC1,AC50,[9]; read-out: AC50,0.2 µM (inconclusive)
O=C(CNCCc1ccc(F)cc1)Nc1cc(F)ccc1F,EC50,[4],> 195 µM (not active)
COc1ccc(Cl)cc1Nc1nc(-c2cccnc2)cs1,EC50,[6],3.22 µM (active)
same,EC50,[7],14 µM (active)
CCCCNC(=O)c1onc(CSc2cccc(Cl)c2)c1C(=O)O,EC50,[4],> 195 µM (not active)
CC(C)(C)NC(=O)C1CC(=O)OC12CCOC(C)(C)C2 (stereo unspecified),EC50,[4],> 195 µM (not active)
Brc1ccc(C2C3=C(Nc4ncnn42)c2ccccc2OC3c2ccncc2)cc1 (stereo unspecified),EC50,[1],22.4 µM (active)
same,EC50,[2],> 150 µM (not active)
same,EC50,[6],4.12 µM (active)
same,EC50,[7],> 60 µM (not active)
same,EC50,[3],21.5 µM (active)
Cc1cc(NC2CCCC2)n2nc(C)c(-c3ccccc3)c2n1,EC50,[6],3.4 µM (active)
same,EC50,[7],> 60 µM (not active)
CN(CCc1ccccn1)c1ccc2c(c1)Cc1ccccc1-2,AC50,[5],7.94 µM (inconclusive)
COC(=O)[C@H]1C[C@@H]1[C@H](NC(=O)c1cnccn1)c1ccccc1,AC50,[8],7.94 µM (inconclusive)
Fc1ccccc1N=C(S)Nc1ccc(CN2CCOCC2)cc1,EC50,[4],68.4 µM (active)
COc1cc(OC)cc(C(=O)N[C@H](C(=O)OCC(=O)N2CCc3ccccc32)C(C)C)c1,EC50,[4],> 195 µM (not active)
N#Cc1c(N)n(-c2ccccc2N)c2nc3ccccc3nc12,EC50,[4],11.2 µM (active)
Cc1nn(-c2ccccc2)c(C)c1/C=N/NC(=O)c1cc(C23CC4CC(CC(C4)C2)C3)[nH]n1,EC50,[1],5.31 µM (active)
same,EC50,[2],10.3 µM (active)
same,EC50,[3],46.2 µM (active)
CC[C@@]1(c2ccc(N)cc2)CCC(=O)NC1=O,AC50,[8],12.6 µM (inconclusive) and 10 µM (inconclusive)
Cc1ccsc1C(=O)C1CCCN(Cc2ccc(-n3cccn3)cc2)C1 (stereo unspecified),EC50,[6],0.201 µM (active)
same,EC50,[7],> 60 µM (inconclusive)
CCCCCCN1N=C(C)C(C(=O)c2ccc(Cl)cc2)C1=O (stereo unspecified),EC50,[1],2.44 µM (active)
same,EC50,[2],> 150 µM (not active)
same,EC50,[3],29.5 µM (active)
COc1ccc(-c2oc(NC(=O)CSc3nc[nH]n3)c(C#N)c2-c2ccc(OC)cc2)cc1,EC50,[1],2.37 µM (active)
same,EC50,[2],1.08 µM (active)
same,EC50,[3],16 µM (active)
COCCn1c(C(=O)N(C)C)cc2c1C[C@H]1CN(C(=O)c3ccccc3)[C@@](Cc3ccc(F)cc3)(C(=O)OC)[C@@H]21,AC50,[9]; read-out: AC50,39.8 µM (inconclusive)
same,AC50,[5],25.1 µM (inconclusive)
COC(=O)c1ccc(NC(=O)c2cc3sccc3n2C)cc1,AC50,[5],10 µM (inconclusive)
Cc1ccccc1OCCC(=O)OCC(=O)N1c2ccccc2NC(=O)C1(C)C,EC50,[4],> 195 µM (not active)
Cc1cccc(C(=O)NC2CCN(C(=O)Nc3ccc(F)cc3)CC2)c1,EC50,[4],32.7 µM (active)
